Assay results taken from patent publication US5585259A, “Ecotin as a factor Xa, XIa, and XIIa inhibitor” (Corvas International, Inc., priority 1993, dated 1996).
pKi: −log10 of the molar value.

Tests used:
[1] = tested on: trypsin; conditions: cited from earlier work
[2] = tested on: trypsin-like (protease II) esterase; conditions: cited from earlier work
[3] = tested on: human serosal urokinase; conditions: cited from earlier work
[4] = tested on: subtilisin; conditions: cited from earlier work
[5] = tested on: rat mast cell chymase; conditions: cited from earlier work
[6] = tested on: thermolysin; conditions: cited from earlier work
[7] = tested on: occlusive thrombus formation in rat carotid artery; assay: Rat model of FeCl3-induced platelet-dependent arterial thrombosis; assay type: in vivo; conditions: 10 μg/kg/min continuous intravenous infusion
Source text: The rat model is a well characterized model of platelet dependent, arterial thrombosis which has been used in the evaluation potential antithrombotic compounds such as direct thrombin inhibitors. Kurz et al., 60 Thromb. Res. 269, 1990. […] In this model a platelet-rich, occlusive thrombus is formed in a segment of the rat carotid artery treated with a fresh solution of FeCl3 absorbed to a piece of filter paper. The FeCl3 is thought to diffuse into the treated segment of artery and causes de-endothelialization resulting in thrombus formation. The effect of a test compound on the incidence of occlusive thrombus formation following the application of the FeCl3 is monitored by ultrasonic flowtometry, and is used as the primary end point. The use of flowtometry is a modification of the original procedure in which thermal detection of clot formation was employed. Kurz et al., supra.
Male Harlan Sprague Dawley rats (420-450 g) were acclimated at least 72 hours prior to use and fasted for 12 hours prior to surgery with free access to water. The animals were prepared, anesthetized with Nembutal with catheters for blood pressure monitoring, drug and anesthesia delivery being implanted as described above. The left carotid artery was isolated by making a midline cervical incision followed by blunt dissection and spreading techniques to separate a 2 cm segment of the vessel from the carotid sheath. A silk suture was inserted under the proximal and distal ends of the isolated vessel to provide clearance for the placement of an ultrasonic flow probe (Transonic) around the proximal end of the vessel. […]
Following surgery, the animals were randomized in either a control (saline infusion) or treatment group with test compound (Ecotin) with at least 4 animals per group at the indicated dose. […] Blood pressure, blood flow, heart rate, and respiration were monitored for 60 minutes.
The incidence of occlusion (defined as the attainment of zero blood flow) was recorded as the primary end point. […] The segment was re-weighed following removal of the clot and the difference recorded as total % clot weight. […]

[8] = tested on: pepsin; conditions: cited from earlier work
[9] = tested on: three membrane-associated serine proteases; conditions: cited from earlier work
[10] = tested on: kallikrein; conditions: cited from earlier work
[11] = tested on: Staphylococcus aureus V8 protease; conditions: cited from earlier work
[12] = tested on: human pulmonary tryptase; conditions: cited from earlier work
[13] = target: chymotrypsin; assay: Protease assay; assay type: biochemical; conditions: read-out: Inhibition constant
Procedure: (§1) Protease activity was determined using commercially available chromogenic substrates and purified proteases. The initial rate was determined with a Thermomax (Molecular Devices) microtiterplate reader at 405 nm wavelength at room temperature. The buffer used for all measurements contained 100 mM TRIS, 140 mM NaCl, 0.1% BSA, pH 7.4.
(§2) vi /vo ={([Et ]-[It ]-Ki *)+[([It ]+i
(§3) *-[Et ])^2 +4Ki *[Et ]]^ 1/2 }/2[Et ]
(§4) vi and vo are the initial rates measured in presence and in absence of inhibitor, [It ] and [Et ] are the total inhibitor and enzyme concentrations and Ki * is the apparent inhibition constant. It was assumed that under these conditions the apparent inhibition constant is not dependent on the substrate concentration and corresponds to the binding constant of the inhibitor to the active site of the protease in the conditions of the experiment.

[14] = tested on: elastase; conditions: cited from earlier work
[15] = tested on: chymotrypsin-like (protease I) esterase; conditions: cited from earlier work
[16] = target: thrombin; assay: Protease assay, chromogenic substrate; assay type: biochemical; conditions: 30 minutes preincubation, read-out: Inhibition constant
Procedure: as §1, with “7.4. […]” for “7.4.”
To determine inhibition constants, the protease was incubated during 90 minutes (factor Xa), 45 minutes (trypsin), or 30 minutes (thrombin, plasmin, factor VIIa-tissue factor, human plasma kallikrein, porcine pancreatic elastase, factor XIa, factor XIIa, activated protein C, recombinant t-PA and urokinase) in 150 μl before the substrate (50 μl) was added. The inhibition constant was determined from a plot of the relative activity versus the inhibitor concentration fitted with the following equation: […]
except for thrombin where the total enzyme concentration can be neglected compared to the inhibitor concentration and the equation is reduced to:
vi /vo =1/(1+[It ]/Ki *).
vi and vo are the initial rates measured in presence and in absence of inhibitor, [It ] and [Et ] are the total inhibitor and enzyme concentrations and Ki * is the apparent inhibition constant. […]

[17] = tested on: pancreatic elastase; conditions: cited from earlier work
[18] = target: human plasma kallikrein; assay: Protease assay, chromogenic substrate; assay type: biochemical; conditions: 30 minutes preincubation, read-out: Inhibition constant
Procedure: as §1, with “7.4. […]” for “7.4.”
(§5) To determine inhibition constants, the protease was incubated during 90 minutes (factor Xa), 45 minutes (trypsin), or 30 minutes (thrombin, plasmin, factor VIIa-tissue factor, human plasma kallikrein, porcine pancreatic elastase, factor XIa, factor XIIa, activated protein C, recombinant t-PA and urokinase) in 150 μl before the substrate (50 μl) was added. The inhibition constant was determined from a plot of the relative activity versus the inhibitor concentration fitted with the following equation:
as §2, §3, §4

[19] = target: urokinase; assay: Protease assay, chromogenic substrate; assay type: biochemical; conditions: 30 minutes preincubation, read-out: Inhibition constant
Procedure: as §1, with “7.4. […]” for “7.4.”
as §5, §2, §3, §4

[20] = tested on: plasmin; assay: Protease assay, chromogenic substrate; assay type: biochemical
Procedure: as §1, with “7.4. […]” for “7.4.”
as §5, §2, §3, §4

[21] = target: factor XIIA; assay: Protease assay, chromogenic substrate; assay type: biochemical; conditions: 30 minutes preincubation, read-out: Inhibition constant
Procedure: as §1, with “7.4. […]” for “7.4.”
as §5, §2, §3, §4

[22] = tested on: factor VIIa-tissue factor complex; assay: Protease assay, chromogenic substrate; assay type: biochemical; conditions: concentrations up to 1 μM
Procedure: as §1, with “7.4. […]” for “7.4.”
as §5, §2, §3, §4

[23] = target: factor XIa; assay: Protease assay, chromogenic substrate; assay type: biochemical; conditions: 30 minutes preincubation, read-out: Inhibition constant
Procedure: as §1, with “7.4. […]” for “7.4.”
as §5, §2, §3, §4

[24] = target: activated protein C; assay: Protease assay, chromogenic substrate; assay type: biochemical; conditions: 30 minutes preincubation, read-out: Inhibition constant
Procedure: as §1, with “7.4. […]” for “7.4.”
as §5, §2, §3, §4

[25] = target: rt-PA; assay: Protease assay, chromogenic substrate; assay type: biochemical; conditions: 30 minutes preincubation, read-out: Inhibition constant
Procedure: as §1, with “7.4. […]” for “7.4.”
as §5, §2, §3, §4

[26] = target: factor Xa; assay: Protease assay, chromogenic substrate; assay type: biochemical; conditions: 90 minutes preincubation, read-out: Inhibition constant
Procedure: as §1, with “7.4. […]” for “7.4.”
as §5, §2, §3, §4

[27] = tested on: papain; conditions: cited from earlier work
[28] = tested on: eight soluble endoproteases which are isolated from E. coli (Do, Re, Mi, Fa, So, La, Ci, Pi); conditions: cited from earlier work

Substance: Ecotin: endogenous E. coli periplasmic serine protease (trypsin) inhibitor protein; recombinant form from pMa5-CI, molecular mass 16,098 Daltons
- inhibition of trypsin [1]: able to inhibit
- inhibition of trypsin-like (protease II) esterase in E. coli [2]: does not inhibit
- inhibition of human serosal urokinase [3]: potent inhibitor
- inhibition of subtilisin [4]: does not inhibit
- inhibition of rat mast cell chymase [5]: potent inhibitor
- inhibition of thermolysin [6]: does not inhibit
- Time to Occlusion [7]: 20.1 ± 0.9 min
- Incidence of Occlusion ([7]; 60 minute observation): 2/6
- Clot Formation (%) ([7]; p<0.01 vs Control): 12.73 ± 8.04%
- inhibition of pepsin [8]: does not inhibit
- inhibition of three membrane-associated serine proteases [9]: insensitive to inhibition
- inhibition of kallikrein [10]: does not inhibit
- inhibition of Staphylococcus aureus V8 protease [11]: does not inhibit
- inhibition of human pulmonary tryptase [12]: does not inhibit
- pKi [13]: > 8.60
- inhibition of elastase [14]: able to inhibit
- inhibition of chymotrypsin-like (protease I) esterase in E. coli [15]: does not inhibit
- pKi [16]: 5.14
- inhibition of pancreatic elastase [17]: potent inhibitor
- pKi [18]: 8.85
- pKi [19]: < 5.60
- Plasmin inhibition ([20]; 1 μM recombinant Ecotin): 15%
- Inhibition constant ([20]; plasmin, 30 minutes preincubation): inactive
- pKi [21]: > 8.60
- inhibition of factor VIIa-tissue factor complex [22]: not inhibited
- pKi [23]: 7.60 to 8.60
- pKi [24]: < 5.60
- pKi [25]: < 5.60
- pKi [26]: 9.70 to 10.30
- inhibition of papain [27]: does not inhibit
- inhibition of the eight soluble E. coli endoproteases [28]: does not inhibit
